Test results taken from US20240246932A1 (Merck Sharp & Dohme LLC, priority 2021, published 2024).

The compounds below were run against human NaV 1.8 channels stably expressed in HEK 293 cells (Homo sapiens (Human), UniProt Q9Y5Y9) (assay: Nav1.8 Qube automated patch-clamp assay). Conditions: human NaV1.8 in HEK 293 cells, whole-cell voltage clamp, room temperature; read-out: IC50 values (nM) for Examples in the Nav1.8 Qube Assay.
Assay type: cell-based
In short: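 Whole-cell voltage clamp at room temperature on HEK293 cells; from −90 mV, a 10 s 1 Hz train of 20 ms pulses to 10 mV (repolarising to −67 mV) was applied. Peak currents at pulses 1 and 10 gave resting- and inactivated-state inhibition; IC50 fitted by Hill equation. Internal CsF/CsCl buffer.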

human NaV 1.8 channels stably expressed in HEK 293 cells, sequence (Q9Y5Y9 whole entry): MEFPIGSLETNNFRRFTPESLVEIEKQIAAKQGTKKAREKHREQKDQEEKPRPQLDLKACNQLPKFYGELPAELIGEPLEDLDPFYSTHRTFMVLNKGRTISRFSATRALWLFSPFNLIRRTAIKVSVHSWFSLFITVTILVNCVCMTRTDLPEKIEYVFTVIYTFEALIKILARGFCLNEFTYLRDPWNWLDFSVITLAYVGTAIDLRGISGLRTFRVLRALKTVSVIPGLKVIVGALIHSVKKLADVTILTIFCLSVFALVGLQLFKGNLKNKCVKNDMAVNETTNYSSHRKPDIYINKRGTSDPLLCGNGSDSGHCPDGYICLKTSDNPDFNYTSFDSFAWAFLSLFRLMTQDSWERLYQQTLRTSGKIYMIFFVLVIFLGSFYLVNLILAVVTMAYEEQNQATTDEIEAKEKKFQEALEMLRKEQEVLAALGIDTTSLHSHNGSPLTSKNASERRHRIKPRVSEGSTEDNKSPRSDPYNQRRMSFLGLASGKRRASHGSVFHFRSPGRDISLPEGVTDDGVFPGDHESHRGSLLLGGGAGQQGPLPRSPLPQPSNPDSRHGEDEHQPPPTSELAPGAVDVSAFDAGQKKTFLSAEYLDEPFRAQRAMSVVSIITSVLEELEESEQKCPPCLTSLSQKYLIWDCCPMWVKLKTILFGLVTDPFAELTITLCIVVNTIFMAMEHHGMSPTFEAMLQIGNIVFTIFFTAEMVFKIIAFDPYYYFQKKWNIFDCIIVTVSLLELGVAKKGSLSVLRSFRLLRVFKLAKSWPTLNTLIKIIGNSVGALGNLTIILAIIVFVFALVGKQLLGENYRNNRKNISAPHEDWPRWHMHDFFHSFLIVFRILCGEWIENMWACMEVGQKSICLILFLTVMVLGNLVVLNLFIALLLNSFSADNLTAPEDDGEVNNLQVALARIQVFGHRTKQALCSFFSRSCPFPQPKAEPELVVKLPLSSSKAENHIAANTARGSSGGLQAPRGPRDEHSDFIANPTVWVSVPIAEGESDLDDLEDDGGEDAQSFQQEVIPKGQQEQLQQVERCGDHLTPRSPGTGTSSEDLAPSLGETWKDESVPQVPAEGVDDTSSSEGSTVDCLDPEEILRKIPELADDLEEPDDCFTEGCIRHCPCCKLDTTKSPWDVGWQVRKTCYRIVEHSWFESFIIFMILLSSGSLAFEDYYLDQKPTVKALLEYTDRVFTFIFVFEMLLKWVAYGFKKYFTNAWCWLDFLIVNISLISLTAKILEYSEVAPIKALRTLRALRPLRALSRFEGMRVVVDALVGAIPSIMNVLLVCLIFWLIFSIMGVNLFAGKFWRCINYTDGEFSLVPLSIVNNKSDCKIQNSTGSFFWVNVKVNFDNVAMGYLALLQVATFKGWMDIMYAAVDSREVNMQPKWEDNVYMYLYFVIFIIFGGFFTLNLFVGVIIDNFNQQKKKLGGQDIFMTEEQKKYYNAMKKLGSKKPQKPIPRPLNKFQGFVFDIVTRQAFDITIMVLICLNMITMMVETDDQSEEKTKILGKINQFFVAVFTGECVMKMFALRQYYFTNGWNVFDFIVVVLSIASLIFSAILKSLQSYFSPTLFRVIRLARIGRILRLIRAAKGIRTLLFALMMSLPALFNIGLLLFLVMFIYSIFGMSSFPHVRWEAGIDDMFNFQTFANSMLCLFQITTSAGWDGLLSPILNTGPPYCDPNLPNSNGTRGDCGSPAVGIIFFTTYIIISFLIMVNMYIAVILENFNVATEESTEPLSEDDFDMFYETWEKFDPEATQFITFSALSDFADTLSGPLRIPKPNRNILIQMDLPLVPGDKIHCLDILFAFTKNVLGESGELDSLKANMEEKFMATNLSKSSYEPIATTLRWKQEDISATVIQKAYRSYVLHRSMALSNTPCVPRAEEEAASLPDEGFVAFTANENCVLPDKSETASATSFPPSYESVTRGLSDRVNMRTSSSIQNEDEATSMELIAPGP

Structure (SMILES) | IC50 [nM]
O=C1CN(C(=O)NC(c2cnc(C(F)(F)F)c(Cl)c2)c2ccc(F)c(Cl)c2F)CCN1 (single isomer, unassigned) [Example 36, N-((R or S)-(3-chloro-2,4-difluorophenyl)(5-chloro-6-(trifluoro-methyl)pyridin-3-yl)methyl)-3-oxopiperazine-1-carboxamide] | 6.97
O=C1NCCN(C(=O)NC(c2cnc(C(F)(F)F)c(F)c2)c2ccc(F)c(Cl)c2F)C1C1CC1 (single isomer, unassigned) [Example 37A, N-(R or S)-(3-chloro-2,4-difluorophenyl)(5-fluoro-6-(trifluoro-methyl)pyridin-3-yl)methyl)-(R or S)-2-cyclopropyl-3-oxopiperazine-1-carboxamide] | 1.85
O=C1NCCN(C(=O)NC(c2cnc(C(F)(F)F)c(F)c2)c2ccc(F)c(Cl)c2F)C1C1CC1 (single isomer, unassigned) [Example 37B, N-((R or S)-(3-chloro-2,4-difluorophenyl)(5-fluoro-6-(trifluoro-methyl)pyridin-3-yl)methyl)-(S or R)-2-cyclopropyl-3-oxopiperazine-1-carboxamide] | 188
O=C1CN(C(=O)NC(c2ccc(F)c(Cl)c2)c2cccc(C(F)(F)F)n2)CCN1 (single isomer, unassigned) [Example 42, N—((R or S)-(3-chloro-4-fluorophenyl)(6-(trifluoromethyl)pyridin-2-yl)methyl)-3-oxopiperazine-1-carboxamide] | 32.2
CC1(C)C(=O)NCCN1C(=O)NC(c1ccc(F)c(Cl)c1)c1cccc(C(F)(F)F)n1 (single isomer, unassigned) [Example 43, N-((R or S)-(3-chloro-4-fluorophenyl)(6-(trifluoromethyl)pyridin-2-yl)methyl)-2,2-dimethyl-3-oxopiperazine-1-carboxamide] | 230
C[C@@H]1C(=O)NCCN1C(=O)NC(c1ccc(F)c(Cl)c1)c1cccc(C(F)(F)F)n1 (single isomer, unassigned) [Example 44] | 8.55
C[C@H]1C(=O)NCCN1C(=O)NC(c1ccc(F)c(Cl)c1)c1cccc(C(F)(F)F)n1 (single isomer, unassigned) [Example 45, (2S)-N-((R or S)-(3-chloro-4-fluoro-phenyl)(6-(trifluoro-methyl)pyridin-2-yl)methyl)-2-methyl-3-oxopiperazine-1-carboxamide] | 1700

Next, values leading:

IC50 [nM] | Structure (SMILES)
559 | O=C1NCCN(C(=O)NC(c2ccc(C(F)(F)F)nc2)c2ccc(F)c(Cl)c2F)C1C1CC1 (single isomer, unassigned) [Example 38A, N—((R or S)-(3-chloro-2,4-difluorophenyl)(6-(trifluoromethyl)pyridin-3-yl)methyl)-(R)-2-cyclopropyl-3-oxopiperazine-1-carboxamide]
2.22 | O=C1NCCN(C(=O)NC(c2ccc(C(F)(F)F)nc2)c2ccc(F)c(Cl)c2F)C1C1CC1 (single isomer, unassigned) [Example 38B, N—((R or S)-(3-chloro-2,4-difluorophenyl)(6-(trifluoromethyl)pyridin-3-yl)methyl)-(S)-2-cyclopropyl-3-oxopiperazine-1-carboxamide]
2630 | CC(C)C1C(=O)NCCN1C(=O)NC(c1ccc(C(F)(F)F)nc1)c1ccc(F)c(Cl)c1F (single isomer, unassigned) [Example 39A, N-((R or S)-(3-chloro-2,4-difluorophenyl)(6-(trifluoromethyl)pyridin-3-yl)methyl)-(R or S)-2-isopropyl-3-oxo-piperazine-1-carboxamide]
15.2 | CC(C)C1C(=O)NCCN1C(=O)NC(c1ccc(C(F)(F)F)nc1)c1ccc(F)c(Cl)c1F (single isomer, unassigned) [Example 39B, N-((R or S)-(3-chloro-2,4-difluorophenyl)(6-(trifluoromethyl)pyridin-3-yl)methyl)-(S or R)-2-isopropyl-3-oxo-piperazine-1-carboxamide]
729 | CCC1C(=O)NCCN1C(=O)NC(c1ccc(C(F)(F)F)nc1)c1ccc(F)c(Cl)c1F (single isomer, unassigned) [Example 40A, N-((R or S)-(3-chloro-2,4-difluorophenyl)(6-(trifluoromethyl)pyridin-3-yl)methyl)-(R or S)-2-ethyl-3-oxopiperazine-1-carboxamide]
10.5 | CCC1C(=O)NCCN1C(=O)NC(c1ccc(C(F)(F)F)nc1)c1ccc(F)c(Cl)c1F (single isomer, unassigned) [Example 40B, N-((R or S)-(3-chloro-2,4-difluorophenyl)(6-(trifluoromethyl)pyridin-3-yl)methyl)-(S or R)-2-ethyl-3-oxopiperazine-1-carboxamide]
2020 | O=C1NCCN(C(=O)NC(c2cnc(C(F)(F)F)nc2)c2ccc(F)c(Cl)c2F)C1C1CC1 (single isomer, unassigned) [Example 41A, N-((R or S)-(3-chloro-2,4-difluorophenyl)(2-(trifluoromethyl)pyrimidin-5-yl)methyl)-(R or S)-2-cyclopropyl-3-oxopiperazine-1-carboxamide]
4.94 | O=C1NCCN(C(=O)NC(c2cnc(C(F)(F)F)nc2)c2ccc(F)c(Cl)c2F)C1C1CC1 (single isomer, unassigned) [Example 41B, N-((R or S)-(3-chloro-2,4-difluorophenyl)(2-(trifluoromethyl)pyrimidin-5-yl)methyl)-(S or R)-2-cyclopropyl-3-oxopiperazine-1-carboxamide]
924 | C[C@H]1CN(C(=O)NC(c2ccc(F)c(Cl)c2)c2cccc(C(F)(F)F)n2)CC(=O)N1 (single isomer, unassigned) [Example 46A, (3S)-N-((R or S)-(3-chloro-4-fluoro-phenyl)(6-(trifluoro-methyl)pyridin-2-yl)methyl)-3-methyl-5-oxopiperazine-1-carboxamide]
506 | C[C@@H]1CN(C(=O)NC(c2ccc(F)c(Cl)c2)c2cccc(C(F)(F)F)n2)CC(=O)N1 (single isomer, unassigned) [Example 46B, (3R)-N-((S or R)-(3-chloro-4-fluoro-phenyl)(6-(trifluoro-methyl)pyridin-2-yl)methyl)-3-methyl-5-oxopiperazine-1-carboxamide]
2310 | O=C1CN(C(=O)NC(c2ccc(F)c(Cl)c2)c2cccc(C(F)(F)F)n2)[C@@H](CF)CN1 (single isomer, unassigned) [Example 47A, (2R)-N-((R or S)-(3-chloro-4-fluoro-phenyl)(6-(trifluoro-methyl)pyridin-2-yl)methyl)-2-(fluoromethyl)-5-oxopiperazine-1-carboxamide]
3760 | O=C1CN(C(=O)NC(c2ccc(F)c(Cl)c2)c2cccc(C(F)(F)F)n2)[C@H](CF)CN1 (single isomer, unassigned) [Example 47B, (2S)-N-((R or S)-(3-chloro-4-fluoro-phenyl)(6-(trifluoro-methyl)pyridin-2-yl)methyl)-2-(fluoromethyl)-5-oxopiperazine-1-carboxamide]
4.78 | C[C@@H]1C(=O)NCCN1C(=O)NC(c1cnc(OCC(F)(F)F)c(F)c1)c1ccc(F)c(C(F)(F)F)n1 (single isomer, unassigned) [Example 48A]
209 | C[C@@H]1C(=O)NCCN1C(=O)NC(c1cnc(OCC(F)(F)F)c(F)c1)c1ccc(F)c(C(F)(F)F)n1 (single isomer, unassigned) [Example 48B]
